In one series the test system is HBsAg. As to the kind of experiment: HBsAg assay (secreted HBsAg by CLIA in HepG2.2.15 cells). Particulars: Hepatitis B virus, HepG2.2.15, 96 h. Format: cell-based, hepatitis B virus (HBV). The procedure: HepG2.2.15 cells (Sells et al, Proc Natl Acad Sci USA. 1987 February; 84(4):1005-9), a constitutively HBV-expressing cell line, were cultured in DMEM medium supplemented with 10% FBS and 400 μg/mL G418, and maintained in 5% CO2 at 37° C.
HepG2.2.15 cells were seeded into 96-well plates at 3×10^4 cells/well. The next day, the cells were treated with a five-fold serial dilution series of the compound in DMSO. The final DMSO concentration in all wells was 0.5% and 0.5% DMSO was used as no drug control. After four days of incubation with compounds, the supernatants were harvested and measured for HBsAg concentration
The HBsAg chemiluminescence immunoassay (CLIA) kit was used to measure the levels of secreted HBsAg. Specifically, 50 μL of culture supernatant was transferred to the CLIA assay plate and 50 μL of enzyme conjugate reagent was added into each well. The plates were sealed and incubated for 1 hour at room temperature. The supernatant-enzyme-mixture was discarded and wells were washed for 6 times. The residual liquid was removed by plating on tissue paper. 25 μL of substrate A and B were added into each well. Luminance was measured using a spectrometer (Tecan Infinite® F200) after 10 minutes incubation. IC50 value was extrapolated based the dose-response curves generated from the data.

Series [1] can be described thus: Cytotoxicity CC50 (CellTiter-Glo). It counts as cell-based. To be noted: human; HepG2.2.15 cells, four days. How it is done:
HepG2.2.15 cells were seeded into 96-well white plate at 5000 cells/well and treated with serially diluted compounds. The plates were incubated in incubator with 5% CO2 at 37° C. for four days. The plate was taken out of incubator and adapted to room temperature for 30 minutes, followed by adding 25 μl CellTiter-Glo (Promega) reagent into each well and votexed at room temperature before being measured for luminance using spectrometer (Tecan Infinite® F200). The CC50 of each compound was defined as the compound concentration at which the treated well's cell viability is 50% compared to that of the DMSO treated well.
Background: Cellular ATP, detected with luciferase, serves as a proxy for viable cell number.

Structures are written as SMILES.

As a reminder, the IC50 is the concentration at which inhibition is half-maximal. The term CC50 denotes the concentration that lowers cell viability or growth by half. Read a low CC50 as greater toxicity to the cells.

Compound `COc1cc2c(cc1-c1cnc(N3CCC3)nc1)CC(C(C)(C)C)n1cc(C(=O)O)c(=O)cc1-2` (centres unmarked) [Example 69, 9-(2-(azetidin-1-yl)pyrimidin-5-yl)-6-(tert-butyl)-10-methoxy-2-oxo-6,7-dihydro-2H-pyrido[2,1-a]isoquinoline-3-carboxylic acid] registered an IC50 in the series with HBsAg of 5 nM. Also, the CC50 at 4 days in series [1] was 50000 to 100000 nM.
For `COc1cc2c(cc1-c1ccc(N3CCC3)nc1)CC(C(C)(C)C)n1cc(C(=O)O)c(=O)cc1-2` (centres unmarked) [Example 50, 9-(6-(azetidin-1-yl)pyridin-3-yl)-6-(tert-butyl)-10-methoxy-2-oxo-6,7-dihydro-2H-pyrido[2,1-a]isoquinoline-3-carboxylic acid] the same measures were 0.5 nM and 50000 to 100000 nM.
The compound `COc1cc2c(cc1-c1ccnn1C(C)C)CC(C(C)(C)C)n1cc(C(=O)O)c(=O)cc1-2` (centres unmarked) [Example 18, 6-(tert-butyl)-9-(1-isopropyl-1H-pyrazol-5-yl)-10-methoxy-2-oxo-6,7-dihydro-2H-pyrido[2,1-a]isoquinoline-3-carboxylic acid] had an IC50 in the series on HBsAg of 77 nM. Also, in series [1], the CC50 at 4 days was 50000 to 100000 nM.
As for `COc1cc2c(cc1-c1ncn(CCCO)n1)CC(C(C)(C)C)n1cc(C(=O)O)c(=O)cc1-2` (centres unmarked) [Example 32, 6-(tert-butyl)-9-(1-(3-hydroxypropyl)-1H-1,2,4-triazol-3-yl)-10-methoxy-2-oxo-6,7-dihydro-2H-pyrido[2,1-a]isoquinoline-3-carboxylic acid], the IC50 in the series on HBsAg is 97 nM. The cytotoxic concentration (CC50) at 4 days in series [1] lay within 50000 to 100000 nM.
For `COc1cc2c(cc1-c1cnn(CC(=O)O)c1)CC(C(C)(C)C)n1cc(C(=O)O)c(=O)cc1-2` (centres unmarked) [Example 20, 6-(tert-butyl)-9-(1-carboxymethyl-1H-pyrazol-4-yl)-10-methoxy-2-oxo-6,7-dihydro-2H-pyrido[2,1-a]isoquinoline-3-carboxylic acid] the same measures were 7 nM and greater than 100000 nM.
For `COc1cc2c(cc1-c1c[nH]nc1C)CC(C(C)(C)C)n1cc(C(=O)O)c(=O)cc1-2` (centres unmarked) [Example 25, 6-(tert-butyl)-10-methoxy-9-(3-methyl-1H-pyrazol-4-yl)-2-oxo-6,7-dihydro-2H-pyrido[2,1-a]isoquinoline-3-carboxylic acid] the same measures were 7 nM and 50000 to 100000 nM.
In the series with HBsAg, `COc1cc2c(cc1-c1cnc(N3CCC(C(=O)O)CC3)nc1)CC(C(C)(C)C)n1cc(C(=O)O)c(=O)cc1-2` (centres unmarked) [Example 73, 6-(tert-butyl)-9-(2-(4-carboxypiperidin-1-yl)pyrimidin-5-yl)-10-methoxy-2-oxo-6,7-dihydro-2H-pyrido[2,1-a]isoquinoline-3-carboxylic acid] registered an IC50 of 67 nM. This compound gave a CC50 at 4 days in series [1] greater than 100000 nM.
`COc1cc2c(cc1-c1cnn(CCC(=O)O)c1)CC(C(C)(C)C)n1cc(C(=O)O)c(=O)cc1-2` (centres unmarked) [Example 22, 6-(tert-butyl)-9-(1-(2-carboxyethyl)-1H-pyrazol-4-yl)-10-methoxy-2-oxo-6,7-dihydro-2H-pyrido[2,1-a]isoquinoline-3-carboxylic acid]: half-maximal inhibition in the series with HBsAg (IC50) required 7 nM. For the same compound, the CC50 at 4 days in series [1] fell in the range of 50000 to 100000 nM.
In the series on HBsAg, `CCOC(=O)c1cn2c(cc1=O)-c1cc(OC)c(-c3ccc(=O)n(C(C)(C)C(=O)OCC)c3)cc1CC2C(C)(C)C` (centres unmarked) [Example 70, Ethyl 6-(tert-butyl)-9-(1-(1-ethoxy-2-methyl-1-oxoprop-2-yl)-6-oxo-1,6-dihydropyridin-3-yl)-10-methoxy-2-oxo-6,7-dihydro-2H-pyrido[2,1-a]isoquinoline-3-carboxylate] returned an IC50 of 44 nM. This compound had a CC50 at 4 days in series [1] of 50000 to 100000 nM.
For `COc1cc2c(cc1-c1ccc(N3CCC(O)CC3)nc1)CC(C(C)(C)C)n1cc(C(=O)O)c(=O)cc1-2` (centres unmarked) [Example 51, 6-(tert-butyl)-9-(6-(4-hydroxypiperidin-1-yl)pyridin-3-yl)-10-methoxy-2-oxo-6,7-dihydro-2H-pyrido[2,1-a]isoquinoline-3-carboxylic acid] the same measures were 0.8 nM and greater than 100000 nM.
Take `COc1cc2c(cc1-c1cnn(CCCC(=O)O)c1)CC(C(C)(C)C)n1cc(C(=O)O)c(=O)cc1-2` (centres unmarked) [Example 24, 6-(tert-butyl)-9-(1-(3-carboxypropyl)-1H-pyrazol-4-yl)-10-methoxy-2-oxo-6,7-dihydro-2H-pyrido[2,1-a]isoquinoline-3-carboxylic acid]: the IC50 with HBsAg worked out at 8 nM. For the same compound, the CC50 at 4 days in series [1] was in the range of 50000 to 100000 nM.
The compound `CCOC(=O)CCn1cc(-c2cc3c(cc2OC)-c2cc(=O)c(C(=O)OCC)cn2C(C(C)(C)C)C3)cn1` (centres unmarked) [Example 21, Ethyl 6-(tert-butyl)-9-(1-(3-ethoxy-3-oxopropyl)-1H-pyrazol-4-yl)-10-methoxy-2-oxo-6,7-dihydro-2H-pyrido[2,1-a]isoquinoline-3-carboxylate] had a half-inhibitory concentration (IC50) with HBsAg of 16 nM. In series [1], this compound showed a CC50 at 4 days of 50000 to 100000 nM.
In the series on HBsAg, `COc1cc2c(cc1-c1cnc(C)s1)CC(C(C)(C)C)n1cc(C(=O)O)c(=O)cc1-2` (centres unmarked) [Example 28, 6-(tert-butyl)-10-methoxy-9-(2-methylthiazol-5-yl)-2-oxo-6,7-dihydro-2H-pyrido[2,1-a]isoquinoline-3-carboxylic acid] returned an IC50 of 0.2 nM. In series [1], this compound had a CC50 at 4 days greater than 100000 nM.
As to `CCOC(=O)Cn1cc(-c2cc3c(cc2OC)-c2cc(=O)c(C(=O)OCC)cn2C(C(C)(C)C)C3)ccc1=O` (centres unmarked) [Example 71, Ethyl 6-(tert-butyl)-9-(1-(2-ethoxy-2-oxoethyl)-6-oxo-1,6-dihydropyridin-3-yl)-10-methoxy-2-oxo-6,7-dihydro-2H-pyrido[2,1-a]isoquinoline-3-carboxylate], the IC50 with HBsAg was 192 nM. The same compound had a CC50 at 4 days in series [1] greater than 100000 nM.
With `CCN1CCN(c2ncc(-c3cc4c(cc3OC)-c3cc(=O)c(C(=O)O)cn3C(C(C)(C)C)C4)cn2)CC1` (centres unmarked) [Example 63, 6-(tert-butyl)-9-(2-(4-ethylpiperazin-1-yl)pyrimidin-5-yl)-10-methoxy-2-oxo-6,7-dihydro-2H-pyrido[2,1-a]isoquinoline-3-carboxylic acid], in the series on HBsAg, the half-maximal inhibitory concentration (IC50) was determined as 27 nM. This compound showed a CC50 at 4 days in series [1] of 50000 to 100000 nM.
As for `COc1cc2c(cc1-c1cnn(CC(F)(F)F)c1)CC(C(C)(C)C)n1cc(C(=O)O)c(=O)cc1-2` (centres unmarked) [Example 10, 6-(tert-butyl)-10-methoxy-2-oxo-9-(1-(2,2,2-trifluoroethyl)-1H-pyrazol-4-yl)-6,7-dihydro-2H-pyrido[2,1-a]isoquinoline-3-carboxylic acid], the IC50 in the series with HBsAg is 6 nM.
In the series with HBsAg, `COc1cc2c(cc1-c1cnn(CCCO)c1)CC(C(C)(C)C)n1cc(C(=O)O)c(=O)cc1-2` (centres unmarked) [Example 9, 6-(tert-butyl)-9-(1-(3-hydroxypropyl)-1H-pyrazol-4-yl)-10-methoxy-2-oxo-6,7-dihydro-2H-pyrido[2,1-a]isoquinoline-3-carboxylic acid] gave an IC50 of 290 nM.
Consider `COc1cc2c(cc1-c1ncn(CC(=O)O)n1)CC(C(C)(C)C)n1cc(C(=O)O)c(=O)cc1-2` (centres unmarked) [Example 30, 6-(tert-butyl)-9-(1-(carboxymethyl)-1H-1,2,4-triazol-3-yl)-10-methoxy-2-oxo-6,7-dihydro-2H-pyrido[2,1-a]isoquinoline-3-carboxylic acid], for which, in the series with HBsAg, it took 13 nM to reach half-maximal inhibition (IC50).
Regarding `COc1cc2c(cc1-c1cnc(C)nc1)CC(C(C)(C)C)n1cc(C(=O)O)c(=O)cc1-2` (centres unmarked) [Example 58, 6-(tert-butyl)-10-methoxy-9-(2-methylpyrimidin-5-yl)-2-oxo-6,7-dihydro-2H-pyrido[2,1-a]isoquinoline-3-carboxylic acid], in the series on HBsAg, half-maximal inhibition (IC50) required 4 nM.
In turn, `COc1cc2c(cc1-c1ccc(F)nc1)CC(C(C)(C)C)n1cc(C(=O)O)c(=O)cc1-2` (centres unmarked) [Example 49, 6-(tert-butyl)-9-(6-fluoropyridin-3-yl)-10-methoxy-2-oxo-6,7-dihydro-2H-pyrido[2,1-a]isoquinoline-3-carboxylic acid] gave an IC50 in the series on HBsAg of 14 nM.
Turning to `COc1cc2c(cc1-c1cccnc1C)CC(C(C)(C)C)n1cc(C(=O)O)c(=O)cc1-2` (centres unmarked) [Example 39, 6-(tert-butyl)-10-methoxy-9-(2-methylpyridin-3-yl)-2-oxo-6,7-dihydro-2H-pyrido[2,1-a]isoquinoline-3-carboxylic acid], in the series on HBsAg, the IC50 worked out at 25 nM.
Consider `COCCn1cc(-c2cc3c(cc2OC)-c2cc(=O)c(C(=O)O)cn2C(C(C)C)C3)cn1` (centres unmarked) [Example 3, 6-isopropyl-10-methoxy-9-(1-(2-methoxyethyl)-1H-pyrazol-4-yl)-2-oxo-6,7-dihydro-2H-pyrido[2,1-a]isoquinoline-3-carboxylic acid], for which, in the series with HBsAg, the half-maximal inhibitory concentration (IC50) came to 18 nM.
Compound `COc1cc2c(cc1-c1ccc(N)nc1)CC(C(C)(C)C)n1cc(C(=O)O)c(=O)cc1-2` (centres unmarked) [Example 54, 9-(6-aminopyridin-3-yl)-6-(tert-butyl)-10-methoxy-2-oxo-6,7-dihydro-2H-pyrido[2,1-a]isoquinoline-3-carboxylic acid] yielded an IC50 with HBsAg of 1 nM.

Source of the values: patent US10717730B1, “Dihydroisoquinoline compound” (SUZHOU ARK BIOPHARMACEUTICAL CO., LTD., priority 2017, dated 2020).
